Measured values as given in patent US9284333B2, “Fused pyrroledicarboxamides and their use as pharmaceuticals” (SANOFI, priority 2012, dated 2016).

Target: Human TASK-1 channels (Homo sapiens (Human), UniProt O14649)
Assay: Determination of the activity on the TASK-1 channel in Xenopus oocytes (two-microelectrode voltage clamp)
Type: cell-based
Conditions: compound concentration 5 μM
Method in brief: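 Xenopus oocytes were injected with human TASK-1 cRNA and recorded two days later by two-microelectrode voltage clamp, holding at −90 mV with 500 ms steps to 40 mV. Superfusion used ND96, pH 7.4, at room temperature, with rising compound concentrations; percentage inhibition of control current was fitted to a dose-response curve for IC50.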

Sequence of Human TASK-1 channels (O14649 whole entry): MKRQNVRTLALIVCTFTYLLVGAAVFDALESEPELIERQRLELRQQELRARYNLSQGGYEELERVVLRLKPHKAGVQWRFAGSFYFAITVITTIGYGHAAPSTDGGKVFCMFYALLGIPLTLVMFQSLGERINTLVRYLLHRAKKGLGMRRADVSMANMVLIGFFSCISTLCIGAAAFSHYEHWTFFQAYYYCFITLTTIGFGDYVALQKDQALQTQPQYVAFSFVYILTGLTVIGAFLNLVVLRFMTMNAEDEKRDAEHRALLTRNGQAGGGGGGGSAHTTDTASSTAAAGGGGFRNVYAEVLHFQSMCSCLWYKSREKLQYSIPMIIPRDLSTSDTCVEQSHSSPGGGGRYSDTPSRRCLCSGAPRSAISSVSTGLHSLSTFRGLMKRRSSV

inhibition at 5 µM [%]	SMILES
63	CC[C@H](NC(=O)c1cc(C(=O)N2CCC[C@@H]2C)n2c1COCC2)c1ccc(C(F)(F)F)c(F)c1 [16bn, 6-((S)-2-Methyl-pyrrolidine-1-carbonyl)-3,4-dihydro-1H-pyrrolo[2,1-c][1,4]oxazine-8-carboxylic acid [(S)-1-(3-fluoro-4-trifluoromethyl-phenyl)-propyl]-amide]

Same assay, conditions: human TASK-1 expressed in Xenopus oocytes, room temperature; read-out: IC50 value for TASK-1 inhibition

SMILES	IC50 [nM]
CC[C@@H](NC(=O)c1cc(C(=O)N2CCC[C@@H]2C)n2c1COC(C)(C)C2)c1ccc(C(F)(F)F)nc1 [16pi, 3,3-Dimethyl-6-((S)-2-methyl-pyrrolidine-1-carbonyl)-3,4-dihydro-1H-pyrrolo[2,1-c][1,4]oxazine-8-carboxylic acid [(R)-1-(6-trifluoromethyl-pyridin-3-yl)-propyl]-amide]	850
CC[C@@H](NC(=O)c1cc(C(=O)NC(C)c2cnccn2)n2c1COCC2)c1ccccc1 (stereo partly drawn) [16hl, 3,4-Dihydro-1H-pyrrolo[2,1-c][1,4]oxazine-6,8-dicarboxylic acid 8-[((R)-1-phenyl-propyl)-amide] 6-[(1-pyrazin-2-yl-ethyl)-amide]]	170
CC(C)[C@@H](NC(=O)c1cc(C(=O)N[C@@H](C)c2ncccn2)c2n1CCOC2)c1ccc(F)cc1 (racemic) [16lr, 3,4-Dihydro-1H-pyrrolo[2,1-c][1,4]oxazine-6,8-dicarboxylic acid 6-{[(R)-1-(4-fluoro-phenyl)-2-methyl-propyl]-amide} 8-[((S)-1-pyrimidin-2-yl-ethyl)-amide]]	360
CC[C@@H](NC(=O)c1cc(C(=O)Nc2nc(C)c(C)s2)c2n1CCCC2)c1ccccc1 [16me, 5,6,7,8-Tetrahydro-indolizine-1,3-dicarboxylic acid 3-[((R)-1-phenyl-propyl)-amide] 1-[(4,5-dimethyl-thiazol-2-yl)-amide]]	340
CCC[C@@H](NC(=O)c1cc(C(=O)N2CCC[C@@H]2C)n2c1COCC2)c1ccc(C(F)(F)F)nc1 [16bi, 6-((S)-2-Methyl-pyrrolidine-1-carbonyl)-3,4-dihydro-1H-pyrrolo[2,1-c][1,4]oxazine-8-carboxylic acid [(R)-1-(6-trifluoromethyl-pyridin-3-yl)-butyl]-amide]	150
CCC(NC(=O)c1cc(C(=O)N[C@H](CC)c2ccccc2)c2n1CCOC2)c1ccc(C)nc1 (stereo partly drawn) [16ho, 3,4-Dihydro-1H-pyrrolo[2,1-c][1,4]oxazine-6,8-dicarboxylic acid 6-{[1-(6-methyl-pyridin-3-yl)-propyl]-amide} 8-[((R)-1-phenyl-propyl)-amide]]	730
CC[C@@H](NC(=O)c1cc(C(=O)NCc2cnccn2)n2c1C(C)OCC2)c1ccccc1 (stereo partly drawn) [16li, 1-Methyl-3,4-dihydro-1H-pyrrolo[2,1-c][1,4]oxazine-6,8-dicarboxylic acid 8-[((R)-1-phenyl-propyl)-amide] 6-[(pyrazin-2-ylmethyl)-amide]]	900
CC[C@@H](NC(=O)c1cc(C(=O)N2CCC[C@@H]2C)n2c1COCC2)c1ccc(C(F)F)cc1 [16au, 6-((S)-2-Methyl-pyrrolidine-1-carbonyl)-3,4-dihydro-1H-pyrrolo[2,1-c][1,4]oxazine-8-carboxylic acid [(R)-1-(4-difluoromethyl-phenyl)-propyl]-amide]	340
CC[C@@H](NC(=O)c1cc(C(=O)N[C@H](C)c2ccc(F)cc2)n2c1CSCC2)c1ccccc1 [16la, 3,4-Dihydro-1H-pyrrolo[2,1-c][1,4]thiazine-6,8-dicarboxylic acid 6-{[(R)-1-(4-fluoro-phenyl)-ethyl]-amide} 8-[((R)-1-phenyl-propyl)-amide]]	150
CC[C@@H](NC(=O)c1cc(C(=O)NC(C)C)n2c1COCC2)c1ccccc1 [16ge, 3,4-Dihydro-1H-pyrrolo[2,1-c][1,4]oxazine-6,8-dicarboxylic acid 6-isopropylamide 8-[((R)-1-phenyl-propyl)-amide]]	690
CC[C@@H](NC(=O)c1cc(C(=O)NCc2cc(OC)cc(OC)c2)n2c1COCC2)c1ccccc1 [16gz, 3,4-Dihydro-1H-pyrrolo[2,1-c][1,4]oxazine-6,8-dicarboxylic acid 6-(3,5-dimethoxy-benzylamide) 8-[((R)-1-phenyl-propyl)-amide]]	2200
CC[C@@H](NC(=O)c1cc(C(=O)NCC2(O)CC2)n2c1COCC2)c1ccccc1 [16hi, 3,4-Dihydro-1H-pyrrolo[2,1-c][1,4]oxazine-6,8-dicarboxylic acid 6-[(1-hydroxy-cyclopropylmethyl)-amide] 8-[((R)-1-phenyl-propyl)-amide]]	1100
CC[C@@H](NC(=O)c1cc(C(=O)N2CCCC2CN2CCOCC2)n2c1COCC2)c1ccccc1 (stereo partly drawn) [16fr, 6-(2-Morpholin-4-ylmethyl-pyrrolidine-1-carbonyl)-3,4-dihydro-1H-pyrrolo[2,1-c][1,4]oxazine-8-carboxylic acid ((R)-1-phenyl-propyl)-amide]	1300
CC[C@@H](NC(=O)c1cc(C(=O)N2CCC[C@@H]2C)c2n1CCOC2)c1ccc(C#N)nc1 [16nj, 8-((S)-2-Methyl-pyrrolidine-1-carbonyl)-3,4-dihydro-1H-pyrrolo[2,1-c][1,4]oxazine-6-carboxylic acid [(R)-1-(6-cyano-pyridin-3-yl)-propyl]-amide]	2000

Second part, the molecule after the results:

IC50 [nM]	SMILES
530	CC[C@@H](NC(=O)c1cc(C(=O)N[C@H](CC)c2ccc(C(F)(F)F)nc2)n2c1COCC2)c1ccccc1 [16id, 3,4-Dihydro-1H-pyrrolo[2,1-c][1,4]oxazine-6,8-dicarboxylic acid 8-[((R)-1-phenyl-propyl)-amide] 6-{[(R)-1-(6-trifluoromethyl-pyridin-3-yl)-propyl]-amide}]
1900	O=C(NC(CC(F)(F)F)c1ccccc1)c1cc(C(=O)N2CCCC2)n2c1COCC2 (stereo not drawn) [16dj, 6-(Pyrrolidine-1-carbonyl)-3,4-dihydro-1H-pyrrolo[2,1-c][1,4]oxazine-8-carboxylic acid (3,3,3-trifluoro-1-phenyl-propyl)-amide]
390	CC[C@@H](NC(=O)c1cc(C(=O)N2CCC[C@H]2C(C)C)c2n1CCOC2)c1ccccc1 [16km, 8-((S)-2-Isopropyl-pyrrolidine-1-carbonyl)-3,4-dihydro-1H-pyrrolo[2,1-c][1,4]oxazine-6-carboxylic acid ((R)-1-phenyl-propyl)-amide]
25	CC[C@H]1CCCN1C(=O)c1cc(C(=O)N[C@H](CC)c2ccccc2)c2n1CCOC2 (racemic) [16fc, 6-((S)-2-Ethyl-pyrrolidine-1-carbonyl)-3,4-dihydro-1H-pyrrolo[2,1-c][1,4]oxazine-8-carboxylic acid ((R)-1-phenyl-propyl)-amide]
3600	CC[C@@H](NC(=O)c1cc(C(=O)N2CCN(CCC(F)(F)F)C[C@@H]2C)n2c1COCC2)c1ccccc1 [16ft, 6-[(S)-2-Methyl-4-(3,3,3-trifluoro-propyl)-piperazine-1-carbonyl]-3,4-dihydro-1H-pyrrolo[2,1-c][1,4]oxazine-8-carboxylic acid ((R)-1-phenyl-propyl)-amide]
640	CC[C@@H](NC(=O)c1cc(C(=O)NCc2cncc(F)c2)n2c1COCC2)c1ccccc1 [16gu, 3,4-Dihydro-1H-pyrrolo[2,1-c][1,4]oxazine-6,8-dicarboxylic acid 6-[(5-fluoro-pyridin-3-ylmethyl)-amide] 8-[((R)-1-phenyl-propyl)-amide]]
48	CC[C@@H](NC(=O)c1cc(C(=O)N[C@@H](c2ccccc2)C2CC2)n2c1CCCC2)c1ccccc1 [16mv, 5,6,7,8-Tetrahydro-indolizine-1,3-dicarboxylic acid 3-[((R)-cyclopropyl-phenyl-methyl)-amide] 1-[((R)-1-phenyl-propyl)-amide]]
42	CC[C@@H](NC(=O)c1cc(C(=O)N[C@H](C)c2ccc(F)cc2)n2c1COCC2)c1ccccc1 [16gl, 3,4-Dihydro-1H-pyrrolo[2,1-c][1,4]oxazine-6,8-dicarboxylic acid 6-{[(R)-1-(4-fluoro-phenyl)-ethyl]-amide} 8-[((R)-1-phenyl-propyl)-amide]]
15	CC[C@@H](NC(=O)c1cc(C(=O)N2CCC[C@@H]2C)n2c1COCC2)c1ccc(F)c(Cl)c1 [16cg, 6-((S)-2-Methyl-pyrrolidine-1-carbonyl)-3,4-dihydro-1H-pyrrolo[2,1-c][1,4]oxazine-8-carboxylic acid [(R)-1-(3-chloro-4-fluoro-phenyl)-propyl]-amide]
130	CC[C@@H](NC(=O)c1cc(C(=O)NC2CCCCC2)n2c1CCCC2)c1ccccc1 [16ml, 5,6,7,8-Tetrahydro-indolizine-1,3-dicarboxylic acid 3-cyclohexylamide 1-[((R)-1-phenyl-propyl)-amide]]
68	CC[C@@H](NC(=O)c1cc(C(=O)N2CCC[C@@H]2C)n2c1COCC2)c1ccc(C(F)(F)F)cc1 [16f, 6-((S)-2-Methyl-pyrrolidine-1-carbonyl)-3,4-dihydro-1H-pyrrolo[2,1-c][1,4]oxazine-8-carboxylic acid [(R)-1-(4-trifluoromethyl-phenyl)-propyl]-amide]
420	CC[C@@H](NC(=O)c1cc(C(=O)N2CCCC2C(C)n2cccn2)n2c1COCC2)c1ccccc1 (stereo partly drawn) [16fw, 6-[2-(1-Pyrazol-1-yl-ethyl)-pyrrolidine-1-carbonyl]-3,4-dihydro-1H-pyrrolo[2,1-c][1,4]oxazine-8-carboxylic acid ((R)-1-phenyl-propyl)-amide]
190	CC[C@@H](NC(=O)c1cc(C(=O)NC(C)c2cnccn2)c2n1CCOC2)c1ccc(F)cc1F (single isomer, unassigned) [16pk]
180	CC[C@@H](NC(=O)c1cc(C(=O)NC(C)c2nnn(C)n2)n2c1COCC2)c1ccccc1 (stereo partly drawn) [16rn, 3,4-Dihydro-1H-pyrrolo[2,1-c][1,4]oxazine-6,8-dicarboxylic acid 6-{[1-(2-methyl-2H-tetrazol-5-yl)-ethyl]-amide} 8-[((R)-1-phenyl-propyl)-amide]]
270	CCOC(=O)CN(C)C(=O)c1cc(C(=O)N[C@H](CC)c2ccccc2)c2n1CCOC2 [16iy, {Methyl-[8-((R)-1-phenyl-propylcarbamoyl)-3,4-dihydro-1H-pyrrolo[2,1-c][1,4]oxazine-6-carbonyl]-amino}-acetic acid ethyl ester]
